Where a SMILES comes first, the peptide text is derived from it.
How the values were obtained:
Assay type in all cases: biochemical
[1] = test system: C. atrox venom MP; assay: HTS for inhibitors of C. Atrox venom MP; settings: compounds approximately 10 μM/well
Description: (§1) Background. Phospholipase A2 (PLA2) catalyzes the hydrolysis of phospholipids at the sn-2 position yielding a free fatty acid and a lysophospholipid. The release of arachidonic acid from membrane phospholipids by PLA is believed to be a key step in the control of eicosanoid production within the cell. The Bee Venom PLA2 Control was a 100 μg/ml solution of bee venom PLA2 is supplied as a positive control in the kit (Abcam kit catalog number ab133089). Substrate for MP was DQ Gelatin and assay run per EnzChek gelatinase assay manufacturers instructions. Venom MP activity was not optimized in initial experiments, but reaction rates were during experiments performed by an independently contracted laboratory. SP assay was performed using Nα-Benzoyl-L-arginine-7-amido-4-methylcoumarin hydrochloride. These kits were stored as specified if stored at −20° C. Unless otherwise specified, in the case of my experiments, only crude, unfractionated lyophilized venom purchased from Sigma or the Miami Serpentarium were used. Plate Setup: Manufacturers guidelines (paraphrased herein) were followed unless otherwise specified. Data Analysis: xcel per manufacturers recommendations. MP and SP assays were prepared and plated in the same manner as PLA2 assays except substrates and fluorophores were different. PBS was the buffer in the case of MP and SP assays and absorbance measured at 495 nm. Substrate for MP was DQ Gelatin and assay run per EnzChek gelatinase assay manufacturers instructions except that experiments were run, unconventionally at 37 C to estimate human body temperature and initial experiments for PLA2, MP activity and SP activity were not optimized for screening (e.g. extremely high doses of venom were used—10 mg/mL stock in all cases since the quality of the venom was unknown with final concentration of 0.444 mg/mL in the test wells). SP assay was performed using Na-Benzoyl-L-arginine-7-amido-4-methylcoumarin hydrochloride (Sigma). Specifics of contract laboratory technique vary from the present inventor's initial experiments in terms of venom and substrate optimization, plate size (384 instead of 96), volume and temperature and other factors including different operators such as those described immediately below, performed following the first pilot experiments and subsequently extended by a contract laboratory.
(§2) Small molecule screening and dose-response experiments took place in the Yale Center for Molecular Discovery. Instrumentation used when indicated included Tecan EVO (2), Tecan Aquarius, Matrix PlateMatePlus (2), Matrix PlateMate2×2 liquid transfer robots and Titertek and Thermo Multidrop liquid dispensers (7). PerkinElmer EnVision (3) and Tecan infinite M1000 (2) plate readers sensitively measure absorbance, fluorescence, fluorescence polarization and luminescence in 96- and 384-well plate formats. A GE InCell Analyzer 2200 imaging system acquires multicolor fluorescent and transmitted light images from plates. Piloting collections used in the first phases of screening were selected by the inventor or from libraries of known compounds and natural products available at the time of experiments on selected venoms including: NCC, GenPlus, Pharmakon, Bioactive lipids, Protease Inhibitors, Procured Drugs and FDA Approved Drugs libraries. The GenPlus (the NINDS Custom Collection) from MicroSource Discovery Systems contains 960 compounds. […]

[2] = test system: E. carinatus venom MP; assay: HTS for inhibitors of E. carinatus venom MP; settings: compounds approximately 10 μM/well
Description: as §1, §2

[3] = test system: M. fulvius venom PLA2; assay: HTS for inhibitors of M. fulvius venom PLA2; settings: compounds approximately 10 μM/well
[4] = test system: snake venom metalloproteinase; assay: time course of metalloproteinase activity with excess venom (FIG. 2A); settings: inhibitors 100 uM; venom 0.444 mg/mL
Description: Substrate for MP was DQ Gelatin and assay run per EnzChek gelatinase assay manufacturers instructions. Venom MP activity was not optimized in initial experiments, but reaction rates were during experiments performed by an independently contracted laboratory. SP assay was performed using Nα-Benzoyl-L-arginine-7-amido-4-methylcoumarin hydrochloride. […] Unless otherwise specified, in the case of my experiments, only crude, unfractionated lyophilized venom purchased from Sigma or the Miami Serpentarium were used. Plate Setup: Manufacturers guidelines (paraphrased herein) were followed unless otherwise specified. Data Analysis: xcel per manufacturers recommendations. MP and SP assays were prepared and plated in the same manner as PLA2 assays except substrates and fluorophores were different. PBS was the buffer in the case of MP and SP assays and absorbance measured at 495 nm. Substrate for MP was DQ Gelatin and assay run per EnzChek gelatinase assay manufacturers instructions except that experiments were run, unconventionally at 37 C to estimate human body temperature and initial experiments for PLA2, MP activity and SP activity were not optimized for screening (e.g. extremely high doses of venom were used—10 mg/mL stock in all cases since the quality of the venom was unknown with final concentration of 0.444 mg/mL in the test wells). SP assay was performed using Na-Benzoyl-L-arginine-7-amido-4-methylcoumarin hydrochloride (Sigma). Specifics of contract laboratory technique vary from the present inventor's initial experiments in terms of venom and substrate optimization, plate size (384 instead of 96), volume and temperature and other factors including different operators such as those described immediately below, performed following the first pilot experiments and subsequently extended by a contract laboratory.
Screening was carried out for inhibitors of venom sPLA2, MP and SPs. Stock solutions of venom at 10 mg/mL were used without typical dilution for assaying various inhibitors of sPLA2, MP and SPs. The final venom concentration in the assays was very high at 0.444 mg/mL.

[5] = target: snake venom metalloproteinase; assay: IC50 for MP inhibition on various venoms (Table 8, FIG. 20); settings: general statement; values only in figures
[6] = test system: Oxyuranus scutellatus venom serine protease; assay: inhibition of venom serine proteases in vitro (FIG. 14); settings: elapid Oxyuranus scutellatus
Description: Substrate for MP was DQ Gelatin and assay run per EnzChek gelatinase assay manufacturers instructions. Venom MP activity was not optimized in initial experiments, but reaction rates were during experiments performed by an independently contracted laboratory. SP assay was performed using Nα-Benzoyl-L-arginine-7-amido-4-methylcoumarin hydrochloride. […] Unless otherwise specified, in the case of my experiments, only crude, unfractionated lyophilized venom purchased from Sigma or the Miami Serpentarium were used. Plate Setup: Manufacturers guidelines (paraphrased herein) were followed unless otherwise specified. […] MP and SP assays were prepared and plated in the same manner as PLA2 assays except substrates and fluorophores were different. PBS was the buffer in the case of MP and SP assays and absorbance measured at 495 nm. Substrate for MP was DQ Gelatin and assay run per EnzChek gelatinase assay manufacturers instructions except that experiments were run, unconventionally at 37 C to estimate human body temperature and initial experiments for PLA2, MP activity and SP activity were not optimized for screening (e.g. extremely high doses of venom were used—10 mg/mL stock in all cases since the quality of the venom was unknown with final concentration of 0.444 mg/mL in the test wells). SP assay was performed using Na-Benzoyl-L-arginine-7-amido-4-methylcoumarin hydrochloride (Sigma). […]

Row | SMILES | percental (%) reduction of MP activity [1] | % Effect on E. carinatus venom MP [2] | also measured
1 | CCCCC[C@H](CC(=O)NO)C(=O)N[C@H](C(=O)N1CCC[C@H]1CO)C(C)C [Actinonin] | 92% |  | 
2 | COC(=O)[C@H](Cc1ccccc1)NC(=O)[C@@H](N)CC(=O)O [Aspartame] (H-Asp-Phe-OMe) | 6.31% | 6% | 
3 | COc1ccc(S(=O)(=O)N(Cc2cccnc2)[C@@H](C(=O)NO)C(C)C)cc1 [CGS 27023] | > 95% |  | 
4 | CCN(CC)CC(=O)Nc1c(C)cccc1C [Lidocaine] |  |  | % effect (% inhibition) on M. fulvius venom PLA2 [3]: 11%
5 | CC(=O)N[C@@H](CS)C(=O)O [NAC, N-Acetyl Cysteine] |  |  | inhibition of metalloproteinase activity (time course) [4]: varying levels of MP inhibition
6 | N=C(N)c1ccc2cc(OC(=O)c3ccc(N=C(N)N)cc3)ccc2c1 [Nafamostat] |  | 28% | IC50s on various venoms [5]: micromolar range; activity against venom serine protease in vitro [6]: surprising activity
7 | NC[C@H](O)c1ccc(O)c(O)c1 [Norepinephrine] |  | 28% | 
8 | Cc1ccc(C(=O)Nc2ccc(S(=O)(=O)O)c3cc(S(=O)(=O)O)cc(S(=O)(=O)O)c23)cc1NC(=O)c1cccc(NC(=O)Nc2cccc(C(=O)Nc3cc(C(=O)Nc4ccc(S(=O)(=O)O)c5cc(S(=O)(=O)O)cc(S(=O)(=O)O)c45)ccc3C)c2)c1 [Suramin] |  |  | % effect (% inhibition) on M. fulvius venom PLA2 [3]: 21%
